Several values for one entry are separate records, joined by “and”; a condition that tells them apart may be missing. Equal entries are not always repeated.
Tests used:
[1] = test system: stress HSP90 from MDA-MB-468 cancer cells; experiment: Binding to stress HSP90; set-up: species or system human; conditions: study protocol; read-out: affinity (EC50) for stress HSP90
HepG2 cells (Pgp +ve) = experiment: Cell viability, ATP levels 72 h; assay type: cell-based, human; conditions: for Cell viability (ATP levels): HEPG2
Experimental: (§1) Supplementary Fig. 15: PU-HZ151 activity in cells is unaffected by Pgp overexpression. a Two Pgp-positive cells lines, Kasumi-1 and HepG2, were tested for epichaperome-positivity. β-Actin, loading control. b ATP levels in cell treated for 72 h with 0 to 1 µM PU-HZ151. Data are presented as means ±s.e.m. of three experimental repeats. Control, vehicle (DMSO) treated cells. c Western blot analysis of aberrant signaling pathway inhibition by […]
(§2) (also on this page, place not known: MDA‐MB-468ASPC1Kasumi Hep G2 ATP levels %Control MDA‐MB-468ASPC1Kasumi 1Hep G2 β-Actin HSP90α Native-PAGE SDS PAGE 100- β-Actin 1)

CYP2B6 = molecular target: T1, CYP2B6 (Homo sapiens, UniProt P20813); experiment: Cytochrome P450 profiling, orphenadrine; assay type: in vitro ADME; conditions: for % PU-HZ151 remaining: Orphenadrine
T1 construct: tissue Life Technologies HMMCPL; host or cells: human liver microsomes
T1 sequence (P20813 1-491): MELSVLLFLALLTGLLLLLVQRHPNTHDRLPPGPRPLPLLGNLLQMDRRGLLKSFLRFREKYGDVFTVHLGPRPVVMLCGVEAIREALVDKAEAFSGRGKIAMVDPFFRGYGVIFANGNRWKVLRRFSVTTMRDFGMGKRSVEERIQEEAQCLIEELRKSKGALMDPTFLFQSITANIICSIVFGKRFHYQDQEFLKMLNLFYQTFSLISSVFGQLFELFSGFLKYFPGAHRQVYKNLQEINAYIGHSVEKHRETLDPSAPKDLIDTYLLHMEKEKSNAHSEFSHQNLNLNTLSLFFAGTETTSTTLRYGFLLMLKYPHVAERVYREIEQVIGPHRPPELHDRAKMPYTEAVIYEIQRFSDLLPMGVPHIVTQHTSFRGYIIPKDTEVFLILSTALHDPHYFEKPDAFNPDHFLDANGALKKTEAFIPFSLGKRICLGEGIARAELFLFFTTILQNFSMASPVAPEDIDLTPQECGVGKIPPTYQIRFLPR
Experimental: (§3) To identify cytochrome P450 enzymes responsible for PU-HZ151’s metabolism in human liver microsomes the following procedure was followed. Phosphate buffer (100 mM, pH 7.4) was prepared monthly and stored at 4 °C. Frozen stock solutions of human liver microsomes (Life Technologies; Cat# HMMCPL) were used once after thawing and were not refrozen. NADPH stock solution (50 mM) in distilled water was prepared fresh daily. […] The stock solutions of these P450 inhibitors were prepared in DMSO. […] The concentration of the chemical inhibitors used in the assay were furafylline (10 μM), tranylcypromine (2 μM), ketoconazole (1 μM), troleandomycin (20 μM), orphenadrine (50 μM), montelukast (3 μM), sulfaphenazole (10 μM), benzylnirvanol (1 μM), quinidine (1 μM), and 1-aminobenzotriazole (1 mM) for all the P450 enzymes. Timing of the reactions was started following the addition of NADPH/magnesium chloride mix and PU-HZ151. Time-dependent chemical inhibitors (furafylline, troleandomycin, orphenadrine, and 1-aminobenzotriazole) were preincubated with human microsomes in the presence of NADPH and magnesium chloride for 15 min before the addition of PU-HZ151 and timing of reactions was started after addition of PU-HZ151. […] Following brief vortexing and centrifugation, a 200 µL aliquot of the supernatant was transferred to a tube, and 10 µL of haloperidol (1 µg mL^−1) as internal standard was added. Following brief vortexing and centrifugation, 50 µL of supernatant was added to a 96-well plate for subsequent LC-MS/MS analysis. PU-HZ151 was similarly tested as above in the absence of CYP inhibitors for comparative purposes. All samples were assayed in duplicate. […] This was similarly performed for incubations of PU-HZ151 performed in the absence of CYP inhibitor.

all the P450 enzymes = experiment: Cytochrome P450 profiling, 1-aminobenzotriazole; assay type: in vitro ADME, human; conditions: for % PU-HZ151 remaining: ABT
Experimental: as §3

MDA-MB-468 cells = experiment: Cell viability, ATP levels 72 h; assay type: cell-based, human; set-up: key to Cell viability (ATP levels): ATP levels as % of vehicle (DMSO) control; conditions: replicates; for Cell viability (ATP levels): MDA-MB-468
Experimental: as §1, §2

## CC(C)(C)CNCCn1c(Sc2cc3c(cc2I)OCO3)nc2c(N)ncnc21 [Compound 85]
[1]
  EC50: 6.9 nM
HepG2 cells (Pgp +ve)
  activity in Pgp-overexpressing vs Pgp-low cells: comparable activity
HepG2 cells (Pgp +ve); 1.95312 nM, replicates, listed as PU-HZ151, 0.00195312 µM
  Cell viability (ATP levels): 87.8706 and 102.165
HepG2 cells (Pgp +ve); 3.90625 nM, replicates, listed as PU-HZ151, 0.00390625 µM
  Cell viability (ATP levels): 90.4471 and 81.5412
HepG2 cells (Pgp +ve); 7.8125 nM, replicates, listed as PU-HZ151, 0.0078125 µM
  Cell viability (ATP levels): 90.4471 and 73.8824
HepG2 cells (Pgp +ve); 15.625 nM, replicates, listed as PU-HZ151, 0.015625 µM
  Cell viability (ATP levels): 83.4588 and 82.6941
HepG2 cells (Pgp +ve); 31.25 nM, replicates, listed as PU-HZ151, 0.03125 µM
  Cell viability (ATP levels): 65.6706 and 60.9647
HepG2 cells (Pgp +ve); 62.5 nM, replicates, listed as PU-HZ151, 0.0625 µM
  Cell viability (ATP levels): 37.2471 and 23.6471
HepG2 cells (Pgp +ve); 125 nM, replicates, listed as PU-HZ151, 0.125 µM
  Cell viability (ATP levels): 13.5294 and 11.2118
HepG2 cells (Pgp +ve); 500 nM, replicates, listed as PU-HZ151, 0.5 µM
  Cell viability (ATP levels): 2.612 and 2.282
HepG2 cells (Pgp +ve); 1000 nM, replicates, listed as PU-HZ151, 1 µM
  Cell viability (ATP levels): 1.824
HepG2 cells (Pgp +ve); Homo sapiens, HepG2, HEPG2, 1.95312 nM, replicates
  viability at 0.00195312 µM: 99.4%
HepG2 cells (Pgp +ve); Homo sapiens, HepG2, HEPG2, 3.90625 nM, replicates
  viability at 0.00390625 µM: 81.2%
HepG2 cells (Pgp +ve); Homo sapiens, HepG2, HEPG2, 7.8125 nM, replicates
  viability at 0.0078125 µM: 79.7%
HepG2 cells (Pgp +ve); Homo sapiens, HepG2, HEPG2, 15.625 nM, replicates
  viability at 0.015625 µM: 72.1%
HepG2 cells (Pgp +ve); Homo sapiens, HepG2, HEPG2, 31.25 nM, replicates
  viability at 0.03125 µM: 70.3%
HepG2 cells (Pgp +ve); Homo sapiens, HepG2, HEPG2, 62.5 nM, replicates
  viability at 0.0625 µM: 27.4%
HepG2 cells (Pgp +ve); Homo sapiens, HepG2, HEPG2, 125 nM, replicates
  viability at 0.125 µM: 16.9%
HepG2 cells (Pgp +ve); Homo sapiens, HepG2, HEPG2, 250 nM, replicates
  viability at […]: 2.72%
HepG2 cells (Pgp +ve); Homo sapiens, HepG2, HEPG2, 500 nM, replicates
  viability at 0.5 µM: 1.86%
HepG2 cells (Pgp +ve); Homo sapiens, HepG2, HEPG2, 1000 nM, replicates
  viability at 1 µM: 1.85%
CYP2B6; 15 min
  % PU-HZ151 remaining: 62%
CYP2B6; 30 min
  % PU-HZ151 remaining: 42.7%
CYP2B6; 60 min
  % PU-HZ151 remaining: 25.6%
CYP2B6; orphenadrine
  inhibition of PU-HZ151 metabolism: 10%
All the P450 enzymes; 1-aminobenzotriazole
  inhibition of PU-HZ151 metabolism: 75%
All the P450 enzymes; 15 min
  % PU-HZ151 remaining: 90.5%
All the P450 enzymes; 30 min
  % PU-HZ151 remaining: 83.9%
All the P450 enzymes; 60 min
  % PU-HZ151 remaining: 79.6%
MDA-MB-468 cells; Homo sapiens, MDA-MB-468, MDA-MB-468, 1.95312 nM
  viability at 0.00195312 µM: 97.8%
MDA-MB-468 cells; Homo sapiens, MDA-MB-468, MDA-MB-468, 3.90625 nM
  viability at 0.00390625 µM: 107%
MDA-MB-468 cells; Homo sapiens, MDA-MB-468, MDA-MB-468, 15.625 nM
  viability at 0.015625 µM: 107%
MDA-MB-468 cells; Homo sapiens, MDA-MB-468, MDA-MB-468, 31.25 nM
  viability at 0.03125 µM: 34.4%
MDA-MB-468 cells; Homo sapiens, MDA-MB-468, MDA-MB-468, 125 nM
  viability at 0.125 µM: 7.51%
MDA-MB-468 cells; Homo sapiens, MDA-MB-468, MDA-MB-468, 500 nM
  viability at 0.5 µM: 13.5%
MDA-MB-468 cells; 1.95312 nM, listed as PU-HZ151, 0.00195312 µM
  Cell viability (ATP levels): 110.592 and 103.375
MDA-MB-468 cells; 3.90625 nM, listed as PU-HZ151, 0.00390625 µM
  Cell viability (ATP levels): 119.425 and 107.367
MDA-MB-468 cells; 7.8125 nM, listed as PU-HZ151, 0.0078125 µM
  Cell viability (ATP levels): 108.225 and 84.5333 and 99.0667
MDA-MB-468 cells; 15.625 nM, listed as PU-HZ151, 0.015625 µM
  Cell viability (ATP levels): 116.083 and 108.992
MDA-MB-468 cells; 31.25 nM, listed as PU-HZ151, 0.03125 µM
  Cell viability (ATP levels): 42.5333 and 26.2083
MDA-MB-468 cells; 62.5 nM, listed as PU-HZ151, 0.0625 µM
  Cell viability (ATP levels): 4.317 and 13.7833 and 10.55
MDA-MB-468 cells; 125 nM, listed as PU-HZ151, 0.125 µM
  Cell viability (ATP levels): 8.242 and 5.217
MDA-MB-468 cells; 500 nM, listed as PU-HZ151, 0.5 µM
  Cell viability (ATP levels): 14.6417 and 13.2667
MDA-MB-468 cells; 1000 nM, listed as PU-HZ151, 1 µM
  Cell viability (ATP levels): 13.625 and 13.2667 and 6.525

Reference: paper PMC8333062, “Chemical tools for epichaperome-mediated interactome dysfunctions of the central nervous system” (Nature Communications, 2021)
